# Laboratory results from paper PMC11172478, “1,3,5-Triazine as Branching Connector for the Construction of Novel Antimicrobial Peptide Dendrimers: Synthesis and Biological Characterization” (International Journal of Molecular Sciences, 2024).
# Residues, ends and D or L forms follow the SMILES beside them. *: point of attachment. βNA = c1ccc2cc(N*)ccc2c1
# What was measured:
# E. coli 208691 = assay: Intracellular accumulation of acridine orange; format: cell-based; details: AO 0.25 µg/mL, 30 min
# Procedure: (§1) The assay was performed as previously described by Armengol et al. including control and clinical strains (E. coli 208691 and P. aeruginosa 666 SJD) previously studied by our group. Briefly, 96-well flat-bottomed microtiter plates (Guangzhou Jet Bio-Filtration Co., Ltd., Mianyang, China) were used. Overnight cultures were diluted in 1/4 Ringer’s solution to an OD520nm of 1.5, and 100 µL was added to the wells previously filled with 100 µL of Ringer’s solution. Acridine Orange (AO) was added to a final concentration of 0.25 µg/mL. The inoculated plates were then incubated for 30 min with shaking, after which the fluorescence was measured in a FLUOstar OPTIMA fluorescence microplate reader (BMG Labtech, Ortenberg, Germany).
# (§2) To determine the uptake and accumulation of AO by bacteria, different scenarios were compared. First, bacteria were examined in the presence of PAβN at 20 µg/mL, and then in the presence of different concentrations of the dendrimers at (MIC, ½ MIC, ¼ MIC). The results in each condition were expressed as the percentage increase in fluorescence with respect to the control.
# P. aeruginosa 666 SJD = assay: Intracellular accumulation of acridine orange; format: cell-based; details: PaβN 20 µg/mL, AO 0.25 µg/mL, 30 min, fluorescence
# Procedure: as §1, §2
# P. aeruginosa ATCC 27853 [1] = assay: Intracellular accumulation of acridine orange; format: cell-based
# Procedure: as §1, §2
# E. coli ATCC 25922 [2] = format: cell-based; details: broth microdilution, MHBCA, 24 h, 37 °C, visual turbidity
# Procedure: (§3) The antimicrobial activity of the dendrimers was evaluated against E. coli ATCC 25922, P. aeruginosa ATCC 27853 and S. aureus ATCC 29213 strains. The MIC values were determined by the broth microdilution method. Briefly, the different strains were grown in Muller Hinton broth cation adjusted (MHBCA) medium overnight at 37 °C with shaking at 200 rpm. The bacterial cultures were then adjusted to OD625nm of 0.08–0.1, and 5 μL of each diluted suspension was added to 96-well plates previously filled with MHBCA and serially diluted peptides. Plates were incubated for 24 h at 37 °C. Finally, the MIC was determined macroscopically, based on the visual turbidity of the wells.
# P. aeruginosa ATCC 27853 [3] = format: cell-based; details: broth microdilution, MHBCA, 24 h, 37 °C, visual turbidity
# Procedure: as §3
# S. aureus ATCC 29213 = format: cell-based; details: broth microdilution, MHBCA, 24 h, 37 °C, visual turbidity
# Procedure: as §3
# E. coli ATCC 25922 [4] = format: cell-based
# Procedure: (§4) The real-time effect of the peptide dendrimers was examined on the growth curves of E. coli ATCC 25922 and P. aeruginosa ATCC 27853. Volumes of 10 mL of TSB liquid cultures containing 1–5 × 10^5 CFU/mL in the logarithmic phase were adjusted in Falcon tubes. Peptide dendrimers were then added at MIC and sub-inhibitory concentrations (½ MIC and ¼ MIC). Incubation was performed in RTS-1C real-time reverse spin bioreactors RTS-1 (Biosan) for 24 h at 37 °C and 2000 rpm. Growth was measured noninvasively as optical density (OD 850 nm) every 15 min.
# P. aeruginosa ATCC 27853 [5] = assay: Bacterial growth curves; format: cell-based; details: P. aeruginosa ATCC 27853, TSB, MIC, ½ MIC and ¼ MIC, 24 h, 37 °C, OD 850 nm
# Procedure: as §4
# P. aeruginosa ATCC 27853 [6] = assay: Time-kill curves; format: cell-based; details: P. aeruginosa ATCC 27853, ½ MIC
# Procedure: The death kinetics of the active dendrimers were examined by plotting their time-kill curves against E. coli ATCC 25922 and P. aeruginosa ATCC 27853. The dendrimers were added to a starting bacterial inoculum of 10^6 CFU/mL in 5 mL of MHBCA medium. Dendrimers were tested at three different concentrations: MIC, ½ MIC and ¼ MIC. They were incubated for 24 h at 37 °C with shaking at 200 rpm. Samples were aseptically collected at 0, 1, 2, 4 and 6 h, serially diluted in Ringer ¼ and plated on Tryptone soy agar for colony counting.
# The response of the microbial strains to the dendrimers was determined based on a logarithmic decrease in viable bacteria. A compound was considered active if it caused a reduction of ≥1 log10 CFU/mL, compared to the corresponding counts at time 0 h. In addition, a dendrimer was considered bactericidal if it caused a reduction of ≥3 log10 CFU/mL [40].
# E. coli ATCC 25922 [7] = assay: Atomic force microscopy of treated bacteria; format: cell-based; details: E. coli ATCC 25922, dendrimer at MIC, 4 h, 37 °C
# Procedure: E. coli ATCC 25922 was grown at 37 °C in Mueller Hinton cation-adjusted broth to an optical density of 0.25 at 625 nm. Dendrimers were added to a starting inoculum of 10^6 CFU/mL and incubated for 4 h at 37 °C with shaking. Untreated E. coli was included as a control. Cells in 1 mL of culture were centrifuged at 5000 rpm for 5 min and washed three times with 1 mL of sterile water. The bacterial cells were then resuspended in 100 µL of sterile water and a 10 µL drop was applied to a freshly cleaved mica surface and allowed to dry for approximately 10 min at room temperature.
# The disk surfaces were analyzed by atomic force microscopy using an AFM XE-70 (Park Systems, Suwon, Korea) in non-contact mode with an ACTA 10M cantilever. […] The AFM images were processed using a scanning probe image processor XEI (Park Systems), correcting the plane of the AFM image for any coupling of the lateral plane and the z-axis caused by the instrument.
# [8] = Black lipid bilayers conductance; details: DiPhPC/PS 4:1 in n-decane, 1 M KCl, −80, −120 and −180 mV
# Procedure: The basic methods have been described previously. Membranes were prepared from 1% lipid a mixture of di-phytanoyl-phosphatidylcholine/di-phytanoylphosphatidylserine (DiPhPC/PS) in a molar ratio of 4:1 in n-decane (Avanti Polar Lipids, Delfzyl, The Netherlands). Bilayers were painted over a 2 mm^2 hole in a Teflon divider separating two compartments containing 5 mL each of a bathing solution of 1MKCl. Voltages were applied across the membrane via calomel electrodes connected by a salt bridge. The resultant current was amplified 10^8-fold by a current amplifier and recorded on a Rikadenski chart recorder. A concentration of 1 μg/mL of the dendrimer was used based on the results of Wu et al..
molecule,measurement,setting,value
"NC(N)=NCCC[C@H](NC(=O)[C@@H](N)Cc1ccccc1)C(=O)Nc1ccc2ccccc2c1 [PaβN, reference compound] (H-Phe-Arg-βNA)",AO accumulation (untreated control = 100%),"E. coli 208691; E. coli 208691, PaβN 20 µg/mL, fluorescence",≥ 140%
same,AO accumulation (untreated control = 100%),P. aeruginosa 666 SJD,≥ 140%
same,changes in AO accumulation by susceptible strains (in words),"P. aeruginosa ATCC 27853 [1]; susceptible strains, PaβN 20 µg/mL",almost negligible
H-[(LK)3-EDA]4-(TA-EDA)2-TA-(LK)3-NH2 [Dendrimer 3],MIC E. coli ATCC 25922,E. coli ATCC 25922 [2],8 µg/mL
same,MIC P. aeruginosa ATCC 27853,P. aeruginosa ATCC 27853 [3],32 µg/mL
same,MIC S. aureus ATCC 29213,S. aureus ATCC 29213,>64 µg/mL
same,effect on growth curve (in words),"E. coli ATCC 25922 [4]; E. coli ATCC 25922, TSB, MIC, ½ MIC and ¼ MIC, 24 h, 37 °C, OD 850 nm",inhibited the growth at the MIC and ½ MIC
same,delay in the onset of detectable turbidity,"E. coli ATCC 25922 [4]; E. coli ATCC 25922, at concentrations lower than ½ MIC",10 h
same,prolongation of lag phase,"E. coli ATCC 25922 [4]; E. coli ATCC 25922, at ¼ MIC",6 h
same,concentration that completely inhibited detectable growth,"E. coli ATCC 25922 [4]; E. coli ATCC 25922, growth curves, 24 h",4 µg/mL
same,effect on growth curve (in words),P. aeruginosa ATCC 27853 [5],complete growth inhibition occurred at the MIC
same,time-kill activity at ½ MIC (in words),P. aeruginosa ATCC 27853 [6],higher antimicrobial activity than dendrimer 1
same,bacterial surface alteration by AFM (in words),E. coli ATCC 25922 [7],significant surface damages
same,channel formation in planar lipid bilayers (conductance),[8],did not induce membrane channels
same,AO accumulation (in words),"E. coli 208691; E. coli 208691, dendrimers at MIC, ½ MIC, ¼ MIC","increase in the AO accumulation with clear differences between the MIC, ½ MIC and ¼ MIC"
same,AO accumulation (in words),"P. aeruginosa ATCC 27853 [1]; P. aeruginosa ATCC 27853, dendrimers at MIC",slight increase in AO accumulation
